Where two headings read alike, the source gives them in different places.
System: HCV 1b_Huh-Luc/Neo-ET cell line persistently expressing a bicistronic genotype 1b replicon in Huh 7 cells
Assay: HCV replicon assay (luciferase readout, 72 h)
Format: cell-based, HCV genotype 1b
Conditions: Hepatitis C virus
Procedure, shortened: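 Huh 7 cells carrying a bicistronic genotype 1b luciferase/neo replicon received compound in triplicate the day after plating. After 72 h, replicon levels were read as Bright-Glo luciferase activity, expressed as % of control; EC50 was fitted with a four-parameter logistic and determined several times.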

[1] = Huh-7, read-out: Inhibition of HCV genotype 1b
[2] = Huh-7, 72 h, read-out: Inhibition of HCV genotype 1b

Row | Compound | EC50 [1] [nM] | EC50 [2] [nM]
1 | COC(=O)N[C@H](C(=O)N1CCC[C@H]1c1nc2ccc3cc(C#Cc4ccc5nc([C@@H]6CCCN6C(=O)[C@H](NC(=O)OC6CCOCC6)c6ccccc6)[nH]c5c4)ccc3c2[nH]1)C(C)C [Compound 1276] | < 1 | –
2 | COC(=O)N[C@H](C(=O)N1CCC[C@H]1c1ncc(-c2ccc3cc(C#Cc4[nH]c([C@@H]5CCCN5C(=O)[C@@H](NC(=O)OC)[C@@H](C)OC)nc4C(F)(F)F)ccc3c2)[nH]1)C(C)C [Compound 1258] | < 1 | –
3 | COC(=O)N[C@H](C(=O)N1CCC[C@H]1c1ncc(-c2ccc(C#Cc3ccc4c(ccc5nc([C@@H]6CCCN6C(=O)[C@@H](NC(=O)OC)C6CCOCC6)[nH]c54)c3)cc2)[nH]1)C(C)C [Compound 1272] | < 1 | –
4 | COC(=O)N[C@H](C(=O)N1CCC[C@H]1c1ncc(-c2ccc(C#Cc3ccc4nc([C@@H]5CCCN5C(=O)[C@@H](c5ccccc5)N(C)C)[nH]c4c3)cc2)[nH]1)C(C)C [Compound 860] | – | < 1
5 | COC(=O)N[C@@H]1CCC[C@H]1C(=O)N1CCC[C@H]1c1ncc(-c2ccc(C#Cc3ccc4nc([C@@H]5CCCN5C(=O)[C@@H]5CCC[C@H]5NC(=O)OC)[nH]c4c3)cc2)[nH]1 [Compound 1058] | – | 10 to 999
6 | O=C(N[C@@H](C(=O)N1CCC[C@H]1c1nc(-c2ccc3cc(C#Cc4cnc([C@@H]5CCCN5C(=O)[C@H](NC(=O)N5CC[C@H](O)C5)c5ccccc5)[nH]4)ccc3c2)c[nH]1)c1ccccc1)N1CC[C@H](O)C1 [Compound 806] | – | 1 to 9.9
7 | O=C(N[C@@H](C(=O)N1CCC[C@H]1C(=O)NCCc1ccc(C#Cc2cnc([C@@H]3CCCN3C(=O)[C@H](NC(=O)C3CC3)c3ccccc3)[nH]2)cc1)c1ccccc1)C1CC1 [Compound 125] | – | < 1
8 | COC(=O)N[C@@H](C(=O)N1CCC[C@H]1c1ncc(-c2ccc(C#Cc3ccc(-c4cnc([C@@H]5CCCN5C(=O)c5cccnc5)[nH]4)cc3)cc2)[nH]1)c1ccccc1 [Compound 183] | – | < 1
9 | O=C(N[C@@H](C(=O)N1CCC[C@H]1c1nc(-c2ccc3cc(C#Cc4cnc([C@@H]5CCCN5C(=O)[C@H](NC(=O)C5CC5)c5ccccc5)[nH]4)ccc3c2)c[nH]1)c1ccccc1)C1CC1 [Compound 804] | – | < 1
10 | O=C(N[C@@H](C(=O)N1CCC[C@H]1c1cc(-c2ccc(C#Cc3ccc(-c4cnc([C@@H]5CCCN5C(=O)[C@H](NC(=O)N5CCOCC5)c5ccccc5)[nH]4)cc3)cc2)n[nH]1)c1ccccc1)N1CCOCC1 [Compound 220] | – | < 1
11 | COC(=O)N[C@H](C(=O)N1CCC[C@H]1c1nc2ccc3cc(C#Cc4ccc5nc([C@@H]6CCCN6C(=O)[C@@H](NC(=O)OC)C6CCOCC6)[nH]c5c4)ccc3c2[nH]1)C(C)C [Compound 1274] | < 1 | –
12 | O=C(N[C@@H](C(=O)N1CCC[C@H]1c1nc(-c2ccc3cc(C#Cc4cnc([C@@H]5CCCN5C(=O)[C@H](NC(=O)N5CC[C@@H](O)C5)c5ccccc5)[nH]4)ccc3c2)c[nH]1)c1ccccc1)N1CC[C@@H](O)C1 [Compound 807] | – | 1 to 9.9
13 | COC(=O)N[C@@H](C)C(=O)N1CCC[C@H]1c1ncc(-c2ccc(C#Cc3ccc4nc([C@@H]5CCCN5C(=O)[C@H](C)NC(=O)OC)[nH]c4c3)cc2)[nH]1 [Compound 1028] | – | < 1
14 | COC(=O)N[C@H](C(=O)N[C@@H](C)c1ncc(-c2ccc(C#Cc3ccc(-c4cnc([C@@H]5CCCN5C(=O)[C@@H](NC(=O)OC)C(C)C)[nH]4)cc3)cc2)[nH]1)C(C)C [Compound 275] | – | < 1
15 | CC(C)(C)OC(=O)N[C@@H](C(=O)N1CCC[C@H]1C(=O)NCc1ccc(C#Cc2ccc(-c3cnc([C@@H]4CCCN4C(=O)[C@H](NC(=O)OC(C)(C)C)c4ccccc4)[nH]3)cc2)cc1)c1ccccc1 [Compound 189] | – | < 1
16 | CCN(CC)[C@@H](C(=O)N1CCC[C@H]1c1ncc(-c2ccc(C#Cc3ccc(-c4cnc([C@@H]5CCCN5C(=O)[C@H](NS(C)(=O)=O)c5ccccc5)[nH]4)cc3)cc2)[nH]1)c1ccccc1 [Compound 229] | – | < 1
17 | COC(=O)N[C@@H](C(=O)N1CCC[C@H]1c1ncc(-c2ccc(C#Cc3ccc(-c4cnc([C@@H]5CCCN5C(=O)[C@H](NC(=O)N5CCC[C@@H](O)C5)c5ccccc5)[nH]4)cc3)cc2)[nH]1)c1ccccc1 [Compound 264] | – | < 1
18 | COC(=O)N[C@H](C(=O)N1CCC[C@H]1c1nc2ccc3cc(C#Cc4ccc5nc([C@@H]6CCCN6C(=O)[C@H](NC(=O)OC)c6ccccc6)[nH]c5c4)ccc3c2[nH]1)C(C)C [Compound 1275] | < 1 | –
19 | COC(=O)N[C@H](C(=O)N1CCC[C@H]1c1ncc(-c2ccc(C#Cc3ccc4nc([C@@H]5CCCN5C(=O)[C@@H](NC(=O)OC)[C@@H](C)OC)[nH]c4n3)cc2)[nH]1)[C@@H](C)OC [Compound 1252] | < 1 | –
20 | O=S(=O)(c1ccccc1)N1CCC[C@H]1c1ncc(-c2ccc(C#Cc3ccc4nc([C@@H]5CCCN5S(=O)(=O)c5ccccc5)[nH]c4c3)cc2)[nH]1 [Compound 1038] | – | > 1000
21 | COC(=O)N[C@@H](C(=O)N1CCC[C@H]1c1ncc(-c2ccc(C#Cc3ccc(-c4cnc([C@@H]5CCCN5C(=O)[C@H](NC(=O)N5CCCC5)c5ccccc5)[nH]4)cc3)cc2)[nH]1)c1ccccc1 [Compound 243] | – | < 1
22 | COC(=O)N[C@H](C(=O)N1CCC[C@H]1c1nc(-c2cnc3cc(C#Cc4cnc([C@@H]5CCCN5C(=O)[C@@H](NC(=O)OC)C(C)C)[nH]4)ccc3c2)c[nH]1)C(C)C [Compound 1076] | – | < 1
23 | COC(=O)N[C@@H](C(=O)N1CCC[C@H]1c1ncc(-c2ccc(C#Cc3ccc(-c4cnc([C@@H]5CCCN5C(=O)NCc5ccccc5)[nH]4)cc3)cc2)[nH]1)c1ccccc1 [Compound 197] | – | < 1
24 | COC(=O)N[C@H](C(=O)N1CCC[C@H]1c1ncc(-c2ccc(C#Cc3ccc(-c4cnc([C@@H]5CCCN5C(=O)[C@@H](NC(=O)OC)C(C)(C)O)[nH]4)cc3)cc2)[nH]1)C(C)(C)O [Compound 993] | – | < 1
25 | COC(=O)N[C@@H](C(=O)N1CCC[C@H]1c1ncc(-c2ccc(C#Cc3ccc(-c4cnc([C@@H]5CCCN5C(=O)[C@H](NS(C)(=O)=O)c5ccccc5)[nH]4)cc3)cc2)[nH]1)c1ccccc1 [Compound 225] | – | < 1
26 | COC(=O)N[C@H](C(=O)N1CCC[C@H]1c1nc(C#N)c(C#Cc2ccc3cc(-c4cnc([C@@H]5CCCN5C(=O)[C@@H](NC(=O)OC)[C@@H](C)OC)[nH]4)ccc3c2)[nH]1)C1CCCC1 [Compound 1270] | < 1 | –
27 | COC(=O)N[C@@H](Cc1c[nH]c2ccccc12)C(=O)N1CCC[C@H]1c1ncc(-c2ccc(C#Cc3ccc4nc([C@@H]5CCCN5C(=O)[C@H](Cc5c[nH]c6ccccc56)NC(=O)OC)[nH]c4c3)cc2)[nH]1 [Compound 1057] | – | < 1
28 | COC(=O)N1CCC[C@H]1C(=O)N1CCC[C@H]1c1ncc(-c2ccc(C#Cc3ccc4nc([C@@H]5CCCN5C(=O)[C@@H]5CCCN5C(=O)OC)[nH]c4c3)cc2)[nH]1 [Compound 1063] | – | 10 to 999
29 | CN1CCN(C(=O)N[C@@H](C(=O)N2CCC[C@H]2c2ncc(C#Cc3ccc(C#Cc4cnc([C@@H]5CCCN5C(=O)[C@H](NC(=O)N5CCN(C)CC5)c5ccccc5)[nH]4)cc3)[nH]2)c2ccccc2)CC1 [Compound 310] | – | 1 to 9.9
30 | COC(=O)N[C@@H](C(=O)N1CCC[C@H]1c1ncc(-c2ccc(C#Cc3ccc(-c4cnc([C@@H]5CCCN5C(=O)[C@H](C(C)C)N5CCOC5=O)[nH]4)cc3)cc2)[nH]1)c1ccccc1 [Compound 1005] | – | < 1
